Patent US20240016875A1, “SHAN-ZHA FOR THE TREATMENT OF DEPRESSION AND ANXIETY DISORDERS” (THE OPEN UNIVERSITY, priority 2020, published 2024)

How the values were obtained:
Assay type in all cases: in vivo
stressed mice [1] = test: Open field test (OFT), locomotor activity, Examples 1-3; settings: UCMS-stressed male ICR mice; herbs and NHT 30 mg/kg, escitalopram 15 mg/kg i.p., 3 weeks
Description: ICR outbred 28-30 days old male mice (Envigo, Israel) were maintained in the vivarium of the Open University lab in Hadassah Ein Karem medical cement, Jerusalem. Mice were group housed (5 mice per cage) and each cage contained mice from all treatment groups. Mice were given ad libitum access to food and water except during stressor application (with the exclusion of the light/dark cycle reversal). Mice kept on a reversed 12 h light/dark cycle (lights on 7:00 pm-7:00 am) while experimental procedures were performed during the dark phase under red light. All experiments were approved by the Open University of Israel committee for animal care and use. Methods were carried out in accordance with the NIH guidelines.
Crataegus pinnatifida, Triticum aestivum, Lilium brownii and Fructus zizyphi jujuba were purchased as freeze-dried granules (KPC Products, Inc., Irvine, CA, USA). […]
The open field consists of an empty square arena (40×40×40 cm) and surrounded by Perspex opaque walls. Each mouse was placed in the center of the arena and video recorded for 5 min. […] Locomotor activity was expressed as the percentage of time that the mouse was moving in the arena in a velocity above 0.1 pixel/sec. […]

BDNF = test: Hippocampal BDNF levels (ELISA), Example 7; settings: stressed mice; 30 mg/kg (escitalopram 15 mg/kg) i.p., 3 weeks; vs vehicle
Description: Assessment of brain BDNF levels. Tissues are homogenized in cold extraction buffer (Tris-buffered saline, pH 8.0, with 1% NP-40, 10% glycerol, 5 mM sodium metavanadate, 10 mM PMSF, 100 mg/ml aprotinin and 10 mg/ml leupeptin). Homogenates are acidified with 0.1 M HCl (pH 3.0), incubated at room temperature (22-24° C.) for 15 min, and neutralized with 0.1 M NaOH (pH 7.6). Homogenates are then microfuged at 7,000 g for 10 min. BDNF levels in the supernatant are evaluated using sandwich ELISA.

stressed mice [2] = test: EPM, UCMS-stressed mice, Example 7
Description: Animals. ICR outbred mice (Envigo RMS (Harlen), Israel) are kept in the vivarium of the Open University lab in Hadassah medical center, Jerusalem. Mice are kept on a reversed 12 h light/dark cycle and given ad libitum access to food and water. All experiments are performed during the dark phase under red light (7:00-19:00). All experiments have been approved by the committee for animal care and use according to the NIH guidelines. Drugs. Drugs are dissolved in saline and 1% DMSO to the desired concentration and administered i.p. Herbal mixture and Shan-zha (30 mg/kg) will be prepared by dissolving each component (KPC Products, Inc., CA, USA) to a final concentration of 0.47 mg/ml. […] Unpredictable chronic mild stress (UCMS). Mice are exposed to UCMS for 4 weeks at the age of 4 weeks as previously described. Elevated plus maze (EPM). This task is based on the natural tendency of mice to avoid open and elevated places. EPM are performed as previously described. Anxiety-like behavior are expressed as the time the animal spent in the open, unprotected arms of the maze.

stressed mice [3] = test: Tail Suspension Test (TST), UCMS-stressed mice, Example 7; settings: 30 mg/kg (escitalopram 15 mg/kg) i.p., 3 weeks, vs vehicle
Description: Animals. ICR outbred mice (Envigo RMS (Harlen), Israel) are kept in the vivarium of the Open University lab in Hadassah medical center, Jerusalem. Mice are kept on a reversed 12 h light/dark cycle and given ad libitum access to food and water. All experiments are performed during the dark phase under red light (7:00-19:00). All experiments have been approved by the committee for animal care and use according to the NIH guidelines. Drugs. Drugs are dissolved in saline and 1% DMSO to the desired concentration and administered i.p. Herbal mixture and Shan-zha (30 mg/kg) will be prepared by dissolving each component (KPC Products, Inc., CA, USA) to a final concentration of 0.47 mg/ml. […] Unpredictable chronic mild stress (UCMS). Mice are exposed to UCMS for 4 weeks at the age of 4 weeks as previously described. Tail Suspension Test (TST). This test is based upon the evaluation of immobility as a measure of behavioral despair and are performed as previously described. Depressive-like behavior are expressed as the time the mouse was immobile.

stressed mice [4] = test: Evaluation of sexual function (number of mounts), stressed mice; settings: UCMS-stressed male mice, 30 min with female in estrus, Shan-zha and NHT 30 mg/kg, escitalopram 15 mg/kg i.p., 3 weeks, vs vehicle
Description: Crataegus pinnatifida, Triticum aestivum, Lilium brownii and Fructus zizyphi jujuba were purchased as freeze-dried granules (KPC Products, Inc., Irvine, CA, USA). Each herb was dissolved in saline with 1% dimethylsulfoxide (DMSO) to a final concentration of 0.47 mg/ml and injected i.p. individually (30 mg/kg) or with the other components to form the formula (NHT, 30 mg/kg). […] Vehicle treatment included i.p. injection of saline with 1% DMSO. All treatments were carried out for 3 weeks. Each male mouse was placed with a female mouse in estrus in the male's home cage during the dark phase under red dim light for 30 min. Number of mounts were coded by an observer blind to the treatment.

- locomotor activity in the OFT (stressed mice [1]): No change in locmotor activity
SMILES: CN(C)CCC[C@@]1(c2ccc(F)cc2)OCc2cc(C#N)ccc21 [escitalopram]
- hippocampal BDNF levels (BDNF): Significant elevations in hippocampal BDNF levels
- anxiety-like behavior in the EPM (stressed mice [2]; stressed mice, 30 mg/kg (escitalopram 15 mg/kg) i.p., 3 weeks, vs vehicle): exhibited reduced anxiety-like behavior in the EPM compared to vehicle-treated stressed mice
- time (seconds) spent in open arms in the EPM, FIG. 22 experiment (stressed mice [2]; vs saline, fractions SZ 50% and SZ 20% at 3 mg, listed as Escitalopram): Mice treated with saline spent significantly less time in open arms in comparison to other treatment groups
- depressive-like behavior in the TST (stressed mice [3]): exhibited reduced depressive-like behavior in the TST compared to vehicle-treated stressed mice
- sexual function (number of mounts) (stressed mice [4]): significantly reduced sexual function compared to vehicle
- sexual function (number of mounts) (stressed mice [4]; listed as Escitalopram): lower number of mounts in comparison with vehicle-treated mice
